Measurements reported in ChEMBL document CHEMBL3885861, “Open TG-GATES”.

Organism: Rattus norvegicus
Experiment: Open TG-GATES - Regimen: Daily Repeat
Format: toxicity, organism-based, Sprague-Dawley
Design: regimen Daily Repeat, gender Male, age 6 weeks
Settings: in vivo, po, 100 mg/kg, route gavage, dose level High; for APTT / Bas / Eos / Fbg / Hb / Ht / Lym / MCH / MCHC / MCV / Mono / Neu / PT / Plat / RBC / Ret / WBC: tissue Blood; for KIDNEY_L / KIDNEY_R / KIDNEY_TOTAL: tissue Kidney; for LIVER: tissue Liver; for A/G / ALP / ALT / AST / BUN / CRE / Ca / Cl / DBIL / GLC / IP / K / LDH / Na / PL / RALB / TBIL / TC / TG / TP / gamma-GTP: tissue Plasma

For `CCC1(c2ccccc2)C(=O)NC(=O)NC1=O` [PHENOBARBITAL], the TERMINAL_BW (72 h, time 3 day) was 223.9 g, the APTT (72 h, time 3 day) was 15.7 s and the Bas (72 h, time 3 day) was 0%. It also gave an Eos (72 h, time 3 day) of 0.4%, a Fbg (72 h, time 3 day) of 214.6 mg/dL and a Hb (72 h, time 3 day) of 13.6 g/dL. It also gave a Ht (72 h, time 3 day) of 40.7%, a Lym (72 h, time 3 day) of 82.8% and an MCH (72 h, time 3 day) of 21.9 pg. The MCHC (72 h, time 3 day) was 33.3%, the MCV (72 h, time 3 day) was 65.9 fL and the Mono (72 h, time 3 day) was 6.8%. For the same molecule, the Neu (72 h, time 3 day) was 10%, the PT (72 h, time 3 day) was 11.4 s and the Plat (72 h, time 3 day) was 115.9 x10_4/uL. It also gave an RBC (72 h, time 3 day) of 617.6 x10_4/ul, a Ret (72 h, time 3 day) of 6.6% and a WBC (72 h, time 3 day) of 159.6 x10_2/uL. The KIDNEY_L (72 h, time 3 day) was 1 g, the KIDNEY_R (72 h, time 3 day) was 1 g and the KIDNEY_TOTAL (72 h, time 3 day) was 2 g. The LIVER (72 h, time 3 day) was 14.1 g, the A/G (72 h, time 3 day) was 1.6 and the ALP (72 h, time 3 day) was 945.6 IU/L. For the same molecule, the ALT (72 h, time 3 day) was 37 IU/L, the AST (72 h, time 3 day) was 60.6 IU/L and the BUN (72 h, time 3 day) was 14.2 mg/dL. The CRE (72 h, time 3 day) was 0.5 mg/dL, the Ca (72 h, time 3 day) was 10.8 mg/dL and the Cl (72 h, time 3 day) was 104.6 meq/L. The DBIL (72 h, time 3 day) was 0.028 mg/dL, the GLC (72 h, time 3 day) was 188.6 mg/dL and the IP (72 h, time 3 day) was 8 mg/dL. It also gave a K (72 h, time 3 day) of 5.1 meq/L, an LDH (72 h, time 3 day) of 112.4 IU/L and a Na (72 h, time 3 day) of 137.4 meq/L. The PL (72 h, time 3 day) was 157.2 mg/dL, the RALB (72 h, time 3 day) was 3.6 g/dL and the TBIL (72 h, time 3 day) was 0.4 mg/dL. It also gave a TC (72 h, time 3 day) of 82.2 mg/dL, a TG (72 h, time 3 day) of 118.6 mg/dL and a TP (72 h, time 3 day) of 5.9 g/dL. The gamma-GTP (72 h, time 3 day) was 1 IU/L, the TERMINAL_BW ([…], time 7 day) was 257.9 g and the TERMINAL_BW ([…], time 14 day) was 304.3 g. The TERMINAL_BW ([…], time 28 day) was 378.9 g, the APTT ([…], time 7 day) was 16.7 s and the Bas ([…], time 7 day) was 0%. The Eos ([…], time 7 day) was 1%, the Fbg ([…], time 7 day) was 241.6 mg/dL and the Hb ([…], time 7 day) was 13.8 g/dL. It also gave a Ht ([…], time 7 day) of 41.4%, a Lym ([…], time 7 day) of 78.8% and an MCH ([…], time 7 day) of 22 pg. The MCHC ([…], time 7 day) was 33.4%, the MCV ([…], time 7 day) was 66 fL and the Mono ([…], time 7 day) was 7.4%. For the same molecule, the Neu ([…], time 7 day) was 13%, the PT ([…], time 7 day) was 11.5 s and the Plat ([…], time 7 day) was 116.8 x10_4/uL. It also gave an RBC ([…], time 7 day) of 629.6 x10_4/ul, a Ret ([…], time 7 day) of 7.5% and a WBC ([…], time 7 day) of 104.3 x10_2/uL. The APTT ([…], time 14 day) was 17.5 s, the Bas ([…], time 14 day) was 0% and the Eos ([…], time 14 day) was 0%. It also gave a Fbg ([…], time 14 day) of 228.6 mg/dL, a Hb ([…], time 14 day) of 14.7 g/dL and a Ht ([…], time 14 day) of 43.9%. For the same molecule, the Lym ([…], time 14 day) was 86%, the MCH ([…], time 14 day) was 20.7 pg and the MCHC ([…], time 14 day) was 33.4%. The MCV ([…], time 14 day) was 61.9 fL, the Mono ([…], time 14 day) was 4.2% and the Neu ([…], time 14 day) was 9.4%. For the same molecule, the PT ([…], time 14 day) was 11.5 s, the Plat ([…], time 14 day) was 115.5 x10_4/uL and the RBC ([…], time 14 day) was 709.4 x10_4/ul. It also gave a Ret ([…], time 14 day) of 5%, a WBC ([…], time 14 day) of 166 x10_2/uL and an APTT ([…], time 28 day) of 19.1 s. The Bas ([…], time 28 day) was 0%, the Eos ([…], time 28 day) was 0.4% and the Fbg ([…], time 28 day) was 226.8 mg/dL. It also gave a Hb ([…], time 28 day) of 15.3 g/dL, a Ht ([…], time 28 day) of 46.1% and a Lym ([…], time 28 day) of 87.8%. It also gave an MCH ([…], time 28 day) of 19.8 pg, an MCHC ([…], time 28 day) of 33.2% and an MCV ([…], time 28 day) of 59.4 fL. It also gave a Mono ([…], time 28 day) of 2.2%, a Neu ([…], time 28 day) of 9.6% and a PT ([…], time 28 day) of 12.4 s. The Plat ([…], time 28 day) was 105.1 x10_4/uL, the RBC ([…], time 28 day) was 775.6 x10_4/ul and the Ret ([…], time 28 day) was 3%. For the same molecule, the WBC ([…], time 28 day) was 170.6 x10_2/uL, the KIDNEY_L ([…], time 7 day) was 1.1 g and the KIDNEY_R ([…], time 7 day) was 1.1 g. For the same molecule, the KIDNEY_TOTAL ([…], time 7 day) was 2.1 g, the KIDNEY_L ([…], time 14 day) was 1.2 g and the KIDNEY_R ([…], time 14 day) was 1.2 g. It also gave a KIDNEY_TOTAL ([…], time 14 day) of 2.4 g, a KIDNEY_L ([…], time 28 day) of 1.4 g and a KIDNEY_R ([…], time 28 day) of 1.4 g. For the same molecule, the KIDNEY_TOTAL ([…], time 28 day) was 2.8 g, the LIVER ([…], time 7 day) was 17.1 g and the LIVER ([…], time 14 day) was 18.1 g. It also gave an LIVER ([…], time 28 day) of 20.8 g, an A/G ([…], time 7 day) of 1.5 and an ALP ([…], time 7 day) of 717.2 IU/L. The ALT ([…], time 7 day) was 32.6 IU/L, the AST ([…], time 7 day) was 58.8 IU/L and the BUN ([…], time 7 day) was 18 mg/dL. The CRE ([…], time 7 day) was 0.6 mg/dL, the Ca ([…], time 7 day) was 11 mg/dL and the Cl ([…], time 7 day) was 106 meq/L. The DBIL ([…], time 7 day) was 0.054 mg/dL, the GLC ([…], time 7 day) was 199 mg/dL and the IP ([…], time 7 day) was 8.1 mg/dL. For the same molecule, the K ([…], time 7 day) was 4.6 meq/L, the LDH ([…], time 7 day) was 145 IU/L and the Na ([…], time 7 day) was 140.4 meq/L. It also gave a PL ([…], time 7 day) of 160.2 mg/dL, an RALB ([…], time 7 day) of 3.8 g/dL and a TBIL ([…], time 7 day) of 0.4 mg/dL. For the same molecule, the TC ([…], time 7 day) was 88.4 mg/dL, the TG ([…], time 7 day) was 71.6 mg/dL and the TP ([…], time 7 day) was 6.2 g/dL. For the same molecule, the gamma-GTP ([…], time 7 day) was 1.6 IU/L, the A/G ([…], time 14 day) was 1.4 and the ALP ([…], time 14 day) was 757.4 IU/L. For the same molecule, the ALT ([…], time 14 day) was 32 IU/L, the AST ([…], time 14 day) was 65.4 IU/L and the BUN ([…], time 14 day) was 19.4 mg/dL. It also gave a CRE ([…], time 14 day) of 0.6 mg/dL, a Ca ([…], time 14 day) of 10.7 mg/dL and a Cl ([…], time 14 day) of 107.2 meq/L. For the same molecule, the DBIL ([…], time 14 day) was 0.004 mg/dL, the GLC ([…], time 14 day) was 180 mg/dL and the IP ([…], time 14 day) was 8.4 mg/dL. For the same molecule, the K ([…], time 14 day) was 4.2 meq/L, the LDH ([…], time 14 day) was 151.2 IU/L and the Na ([…], time 14 day) was 141.4 meq/L. It also gave a PL ([…], time 14 day) of 156 mg/dL, an RALB ([…], time 14 day) of 3.9 g/dL and a TBIL ([…], time 14 day) of 0.4 mg/dL. It also gave a TC ([…], time 14 day) of 91.4 mg/dL, a TG ([…], time 14 day) of 60.4 mg/dL and a TP ([…], time 14 day) of 6.5 g/dL. The gamma-GTP ([…], time 14 day) was 1.4 IU/L, the A/G ([…], time 28 day) was 1.4 and the ALP ([…], time 28 day) was 536 IU/L. It also gave an ALT ([…], time 28 day) of 34.6 IU/L, an AST ([…], time 28 day) of 64.6 IU/L and a BUN ([…], time 28 day) of 21.2 mg/dL. It also gave a CRE ([…], time 28 day) of 0.4 mg/dL, a Ca ([…], time 28 day) of 10.7 mg/dL and a Cl ([…], time 28 day) of 106.2 meq/L. The DBIL ([…], time 28 day) was 0.014 mg/dL, the GLC ([…], time 28 day) was 180 mg/dL and the IP ([…], time 28 day) was 7.7 mg/dL. It also gave a K ([…], time 28 day) of 4.9 meq/L, an LDH ([…], time 28 day) of 138.8 IU/L and a Na ([…], time 28 day) of 141.6 meq/L. The PL ([…], time 28 day) was 144.8 mg/dL, the RALB ([…], time 28 day) was 4 g/dL and the TBIL ([…], time 28 day) was 0.4 mg/dL. It also gave a TC ([…], time 28 day) of 79.6 mg/dL, a TG ([…], time 28 day) of 76.2 mg/dL and a TP ([…], time 28 day) of 6.8 g/dL. It also gave a gamma-GTP ([…], time 28 day) of 2 IU/L.
